Source: publication PMC5216056 (Nature Communications, 2017)
Values joined by “and” are separate entries in the source; they are usually repeats but may differ in a detail not shown here. Equal values may be shown once.

What was measured:
[1] = target: T1, hCB2R (Homo sapiens, UniProt P34972); parameters: expressed in transfected cells; host or cells: Flp-In-293 (Invitrogen #R750-07), pcDNA5/FRT; conditions: hCB2R
[2] = target: T1, hCB2R; test: biochemical; type: binding
[3] = target: T2, hCB1R (Homo sapiens, UniProt P21554); test: cell-based; type: cell-based
T2 construct: host or cells: CHO

[4] = target: T2, hCB1R; test: biochemical; type: binding
[5] = target: T2, hCB1R; test: cell-based; type: cell-based; remark: listed apart in the source
[6] = target: T3, AT1 (h) (Homo sapiens, UniProt P30556); test: CEREP panel; type: binding; conditions: 10 µM
T3 construct: CEREP
T3 sequence (P30556 1-359): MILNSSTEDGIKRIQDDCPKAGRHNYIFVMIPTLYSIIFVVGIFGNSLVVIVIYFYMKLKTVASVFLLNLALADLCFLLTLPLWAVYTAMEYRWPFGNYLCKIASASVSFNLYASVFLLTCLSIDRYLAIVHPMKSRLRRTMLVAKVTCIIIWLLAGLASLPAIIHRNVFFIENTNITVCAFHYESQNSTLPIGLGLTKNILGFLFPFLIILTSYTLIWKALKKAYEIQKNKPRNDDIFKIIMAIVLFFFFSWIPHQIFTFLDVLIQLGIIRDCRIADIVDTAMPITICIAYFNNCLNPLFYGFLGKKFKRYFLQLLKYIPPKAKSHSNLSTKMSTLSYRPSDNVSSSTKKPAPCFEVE

[7] = test system: AEA cellular uptake in U937 cells; test: cells; type: cell-based, human; conditions: for IC50: read-out: AEA reuptake IC50 (95% CI) U937 cells
[8] = test system: BZD (central); type: binding; conditions: 10 µM
[9] = target: T4, beta 1 (h) (Homo sapiens, UniProt P08588); test: biochemical; type: binding; conditions: 10 µM
T4 construct: CEREP

[10] = target: T5, Rat recombinant TRPV3 (Rattus norvegicus, UniProt Q4QYD9); test: cell-based; type: cell-based
T5 construct: expressed in transfected cells; host or cells: HEK293 (TRPV3-HEK-293, gift from HB Bradshaw, Indiana University)
T5 sequence (Q4QYD9 1-791): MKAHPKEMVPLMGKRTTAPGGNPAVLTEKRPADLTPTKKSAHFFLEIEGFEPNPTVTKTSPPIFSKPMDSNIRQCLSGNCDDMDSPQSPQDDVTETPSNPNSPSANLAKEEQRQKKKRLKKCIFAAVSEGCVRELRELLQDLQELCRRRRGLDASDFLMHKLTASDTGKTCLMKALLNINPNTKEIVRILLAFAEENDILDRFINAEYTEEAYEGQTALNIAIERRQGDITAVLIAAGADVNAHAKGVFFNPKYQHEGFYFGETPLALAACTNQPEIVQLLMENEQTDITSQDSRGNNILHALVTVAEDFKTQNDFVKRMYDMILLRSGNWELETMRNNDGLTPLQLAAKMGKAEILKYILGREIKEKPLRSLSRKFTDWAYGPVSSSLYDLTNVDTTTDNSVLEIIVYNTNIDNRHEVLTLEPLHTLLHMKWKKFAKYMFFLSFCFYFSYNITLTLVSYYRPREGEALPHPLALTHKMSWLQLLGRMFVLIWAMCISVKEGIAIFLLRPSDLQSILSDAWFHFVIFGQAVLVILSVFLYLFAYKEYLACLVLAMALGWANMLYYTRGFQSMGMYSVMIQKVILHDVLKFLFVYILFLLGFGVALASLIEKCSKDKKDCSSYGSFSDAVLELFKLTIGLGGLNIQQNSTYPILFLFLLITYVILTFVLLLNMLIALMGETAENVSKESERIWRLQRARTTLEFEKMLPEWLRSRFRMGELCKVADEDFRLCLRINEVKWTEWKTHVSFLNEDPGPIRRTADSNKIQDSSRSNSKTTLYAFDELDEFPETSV

T4 sequence (P08588 whole entry): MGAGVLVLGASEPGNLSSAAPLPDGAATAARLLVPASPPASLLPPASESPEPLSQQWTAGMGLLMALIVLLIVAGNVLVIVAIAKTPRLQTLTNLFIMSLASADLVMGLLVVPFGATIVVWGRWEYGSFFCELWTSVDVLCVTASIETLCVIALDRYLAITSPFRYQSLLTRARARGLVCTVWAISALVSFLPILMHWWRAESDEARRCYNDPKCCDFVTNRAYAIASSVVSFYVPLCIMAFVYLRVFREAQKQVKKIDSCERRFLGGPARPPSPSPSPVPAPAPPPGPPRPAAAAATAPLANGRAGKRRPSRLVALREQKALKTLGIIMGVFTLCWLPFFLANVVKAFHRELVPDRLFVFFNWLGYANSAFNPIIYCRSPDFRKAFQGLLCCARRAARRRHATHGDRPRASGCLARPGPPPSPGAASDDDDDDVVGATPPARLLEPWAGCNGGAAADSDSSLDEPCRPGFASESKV
T2 sequence (P21554 whole entry): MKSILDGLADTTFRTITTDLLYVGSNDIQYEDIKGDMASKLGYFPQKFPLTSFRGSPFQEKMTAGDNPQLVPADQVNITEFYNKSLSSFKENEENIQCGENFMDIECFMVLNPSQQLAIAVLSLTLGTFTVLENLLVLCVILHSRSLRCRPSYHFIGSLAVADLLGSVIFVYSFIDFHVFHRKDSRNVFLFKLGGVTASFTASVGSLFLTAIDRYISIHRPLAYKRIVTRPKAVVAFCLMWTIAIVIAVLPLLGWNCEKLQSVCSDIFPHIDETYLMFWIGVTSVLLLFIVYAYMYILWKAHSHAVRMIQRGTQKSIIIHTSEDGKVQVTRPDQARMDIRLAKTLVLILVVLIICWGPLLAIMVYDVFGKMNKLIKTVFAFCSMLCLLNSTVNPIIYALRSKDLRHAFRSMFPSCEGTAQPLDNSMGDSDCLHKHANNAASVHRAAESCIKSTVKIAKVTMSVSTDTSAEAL
T1 sequence (P34972 whole entry): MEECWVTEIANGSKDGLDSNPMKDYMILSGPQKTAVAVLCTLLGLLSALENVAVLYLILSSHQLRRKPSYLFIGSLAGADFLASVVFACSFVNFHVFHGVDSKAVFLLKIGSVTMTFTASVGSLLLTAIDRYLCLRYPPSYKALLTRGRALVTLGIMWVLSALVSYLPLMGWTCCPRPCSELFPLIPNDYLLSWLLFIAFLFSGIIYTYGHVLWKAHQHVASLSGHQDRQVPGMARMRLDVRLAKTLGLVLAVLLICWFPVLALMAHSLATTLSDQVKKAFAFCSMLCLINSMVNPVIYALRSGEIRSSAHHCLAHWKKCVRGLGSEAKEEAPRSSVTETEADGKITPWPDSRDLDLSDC

Compound: CN1CCCCC1Cn1cc(C(=O)c2cc([N+](=O)[O-])ccc2I)c2ccccc21 (racemic) [(rac)-AM1241]
- GIRK-GTPγS bias factor (BF) [1]: 1.08
- GIRK-GTPγS ΔΔlogR [1]: 0.03 ± 0.46
- LogR GIRK [1]: 5.52
- LogR GTPγS [1]: 5.9
- LogR pERK [1]: 8.67
- LogR β-AR [1]: 7.95
- pERK-GIRK bias factor (BF) [1]: 95.72
- pERK-GIRK ΔΔlogR [1]: 1.98 ± 0.71
- pERK-GTPγS bias factor (BF) [1]: 103.28
- pERK-GTPγS ΔΔlogR [1]: 2.01 ± 0.8
- β-AR-GIRK bias factor (BF) [1]: 62.37
- β-AR-GIRK ΔΔlogR [1]: 1.8 ± 0.49
- β-AR-GTPγS bias factor (BF) [1]: 68.30
- β-AR-GTPγS ΔΔlogR [1]: 1.83 ± 0.61
- β-AR-pERK bias factor (BF) [1]: 0.65
- β-AR-pERK ΔΔlogR [1]: -0.19 ± 0.81
- ΔLogR GIRK ([1]; reference CP55940): -2.35
- ΔLogR GTPγS ([1]; reference CP55940): -2.38
- ΔLogR pERK ([1]; reference CP55940): -0.37
- ΔLogR β-AR ([1]; reference CP55940): -0.55
- RE GIRK ([1]; relative effectiveness): 0.004
- RE GTPγS ([1]; relative effectiveness): 0.004
- RE pERK ([1]; relative effectiveness): 0.43
- RE β-AR ([1]; relative effectiveness): 0.28
- CB2R Selectivity (binding, human) [2]: 32
- pKi ± SEM hCB2R ([2]; CHO membranes, Leiden, HU210 and SR144528 from Roche): 8.39 ± 0.10
- Emax ± SEM β-AR recruitment hCB1R [3]: 6 ± 5
- pEC50 ± SEM β-AR recruitment hCB1R [3]: < 5
- pKi ± SEM hCB1R [4]: 6.89 ± 0.31
- Emax ± SEM GIRK hCB1R [5]: 36 ± 4
- pEC50 ± SEM GIRK hCB1R [5]: < 5

Compound: Cc1c(C(=O)c2cccc3ccccc23)c2cccc3c2n1[C@H](CN1CCOCC1)CO3 [WIN55212-2]
- % inhibition AT1 (h) [6]: 29%
- AEA reuptake Efficacy (% inhibition) U937 cells ([7]; from dose-response): 52%
- IC50 [7]: 4.65 µM
- % inhibition BZD (central) [8]: 4%
- % inhibition beta 1 (h) [9]: 6%
- TRPV3 Efficacy (% ionomycin 4μM) [10]: 22.9%
- EC50 ([10]; read-out: TRPV3 Potency EC50): 6.5 µM
- IC50 ([10]; vs thymol 100μM, read-out: TRPV3 IC50 for antagonism or desensitization): > 100 µM

Compound: SR144528
- Emax ± SEM β-AR recruitment hCB1R [3]: -82 ± 5
- % inhibition AT1 (h) [6]: 33%
- AEA reuptake % inhibition, effect at 10 µM, U937 cells ([7]; 10 µM (values marked *)): 30%
- IC50 [7]: > 10 µM
- % inhibition BZD (central) [8]: -3%
- % inhibition beta 1 (h) [9]: 41%
- Emax ± SEM GIRK hCB1R [5]: 9 ± 4
- TRPV3 Efficacy (% ionomycin 4μM) [10]: < 10%

Compound: CCCn1c(C)c(C(=O)c2cccc3ccccc23)c2ccccc21 [JWH015]
- % inhibition AT1 (h) [6]: 21%
- % inhibition BZD (central) [8]: -57%
- % inhibition beta 1 (h) [9]: 7%

Compound: CCCCC/C=C\C/C=C\C/C=C\C/C=C\CCCC(=O)OC(CO)CO [2-AG, 2-arachidonoyl glycerol]
- GIRK-GTPγS bias factor (BF) [1]: 154.53
- GIRK-GTPγS ΔΔlogR [1]: 2.19 ± 0.44
- GIRK-cAMP bias factor (BF) [1]: 178.65
- GIRK-cAMP ΔΔlogR [1]: 2.25 ± 0.21
- GTPγS-cAMP bias factor (BF) [1]: 1.16
- GTPγS-cAMP ΔΔlogR [1]: 0.06 ± 0.46
- LogR GIRK [1]: 6.40
- LogR GTPγS [1]: 4.63
- LogR cAMP [1]: 6.99
- LogR pERK [1]: 6.37
- LogR β-AR [1]: 5.9
- pERK-GIRK bias factor (BF) [1]: 0.06
- pERK-GIRK ΔΔlogR [1]: -1.2 ± 0.29
- pERK-GTPγS bias factor (BF) [1]: 9.68
- pERK-GTPγS ΔΔlogR [1]: 0.99 ± 0.5
- pERK-cAMP bias factor (BF) [1]: 11.19
- pERK-cAMP ΔΔlogR [1]: 1.05 ± 0.31
- β-AR-GIRK bias factor (BF) [1]: 0.07
- β-AR-GIRK ΔΔlogR [1]: -1.14 ± 0.19
- β-AR-GTPγS bias factor (BF) [1]: 11.27
- β-AR-GTPγS ΔΔlogR [1]: 1.05 ± 0.45
- β-AR-cAMP bias factor (BF) [1]: 13.03
- β-AR-cAMP ΔΔlogR [1]: 1.12 ± 0.23
- β-AR-pERK bias factor (BF) [1]: 1.16
- β-AR-pERK ΔΔlogR [1]: 0.07 ± 0.3
- ΔLogR GIRK ([1]; reference CP55940): -1.47
- ΔLogR GTPγS ([1]; reference CP55940): -3.65
- ΔLogR cAMP ([1]; reference CP55940): -3.72
- ΔLogR pERK ([1]; reference CP55940): -2.67
- ΔLogR β-AR ([1]; reference CP55940): -2.6
- RE GIRK ([1]; relative effectiveness): 0.03
- RE GTPγS ([1]; relative effectiveness): 0.0002
- RE cAMP ([1]; relative effectiveness): 0.0002
- RE pERK ([1]; relative effectiveness): 0.002
- RE β-AR ([1]; relative effectiveness): 0.003
- Ki ([2]; CHO membranes, Leiden, HU210 and SR144528 from Roche, read-out: pKi ± SEM hCB2R (converted)): ~0.1 µM and 0.115 µM
- Emax ([5]; AtT20, read-out: Emax ± SEM GIRK hCB1R): 100 ± 11%
